Assay results as given in the METLIN SMRT retention time set (Domingo-Almenara et al. 2019).

Assay: gradient 5% acetonitrile 3 min, to 50% in 2 min, to 85% in 15 min, held 3 min, 100 µL/min
Conditions: column: Zorbax Extend-C18 2.1 x 50 mm; eluents: water / acetonitrile, 0.1% formic acid
In short: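 Pure standards were run in mixtures of ~100 molecules by HPLC coupled to a quadrupole time-of-flight mass spectrometer. The column was a Zorbax Extend-C18 (2.1 × 50 mm, 1.8 μm) at 100 μL/min, with water and acetonitrile each containing 0.1% formic acid, in positive and negative ionization mode. Dead and dwell volumes were 40 μL and 900 μL. Retention time was taken from computationally picked adduct peaks, each manually inspected, with data collected over 3 months.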

Structure (SMILES) | RP-LC retention time
N#Cc1cccc(-c2cn3c(n2)N(C(=O)c2ccccn2)CCC3)c1 | 656 s
CC(C)NC(=O)c1ccc(Nc2c(-c3ccccc3)nc3cnccn23)cc1 | 702 s
COc1c(OP2(=S)OCC(C)(C)CO2)cnn(C2CCCCC2)c1=O | 1190 s
Cc1ccc(NC(=O)N2CCc3[nH]cnc3C2c2ccncc2)cc1Cl (centres undefined) | 585 s
COc1ccc(OCc2nc(CCN(C)C(=O)c3ccco3)no2)cc1 | 782 s
COc1ccc(CNC(=O)N2CCC(c3nc(C(=O)N4CCOCC4)c(C)o3)CC2)cc1 | 671 s
CCOCCCNCc1ccc(-c2cc(Cl)ccc2Cl)o1 | 753 s
COc1cc(Cl)c(C)cc1NC(=O)C1CCN(c2c(C(=O)N3CCOCC3)cnc3snc(C)c23)CC1 | 945 s
O=C(NCc1ccccc1F)c1ccc2c(c1)ncn2CCN1CCCC1 | 574 s
CCOC(=O)C1=C(CN2CCN(C(C)CC)CC2)NC(=O)NC1c1ccc(Cl)cc1 (centres undefined) | 663 s
Cc1ccc(NC(=O)C2CCCN(c3nc4c(s3)c(C)nn4-c3cccc(F)c3)C2)c(C)c1 (centres undefined) | 1280 s
CCCN1C(=O)COc2ccc(-c3noc(CNS(=O)(=O)c4ccccc4)n3)cc21 | 888 s
O=C(c1cc(-c2ccc(F)c(F)c2)on1)N1CCC(Cn2cccn2)CC1 | 797 s
CCn1ccc2c(cc(C(=O)Nc3cc(C)ccc3C)n2C)c1=O | 721 s
CC(NC(=O)c1ccc2nc(-c3ccc(Cl)cc3)cn2c1)c1cccnc1 (centres undefined) | 603 s
CCOc1cc(C(=O)N2CCNC(=O)C2C)cc(OCC)c1OCC (centres undefined) | 638 s
O=C1c2cc(NC(=O)C3(c4cccs4)CCCC3)ccc2OCCC2CCCCN12 (centres undefined) | 974 s
Cc1cccc(-c2ncccc2CNS(=O)(=O)Cc2cccc(F)c2)c1 | 774 s
COc1ccc(-c2ccnc3nc(Cc4ccc(F)cc4)nn23)c(F)c1 | 906 s
CC1CCC(C(=O)Nc2cccc(-c3nnc4n3CCCC4)c2)CC1 (centres undefined) | 756 s
Cc1[nH]c(C(=O)N2CCCC(C(=O)NCCN3CCCCC3)C2)c(C)c1C(=O)OC(C)C (centres undefined) | 634 s
CC1CCN(c2ncc3c(n2)CCN(Cc2ccc(N(C)C)cc2)C3)CC1 | 757 s
COCC1CN(C2CCC2)CC12CCN(C(=O)C1CCN(C(C)=O)CC1)CC2 (centres undefined) | 561 s
Cc1oc(-c2[nH]ncc2C(=O)N(C)C)cc1S(=O)(=O)Nc1cc(F)cc(F)c1 | 890 s
COc1ccc(-n2c(=O)n(C)c(=O)c3cc(C(=O)NCc4ccc(C)cc4)cnc32)cc1 | 888 s
O=C(NCc1n[nH]c(=O)c2ccccc12)C(=O)N1CCCCC1 | 603 s
CCc1ccc(-c2csc(Cc3nc(-c4ccc5c(c4)OCO5)no3)n2)cc1 | 1300 s

Structure (SMILES) | RP-LC retention time
COc1ccc(S(=O)(=O)NCCc2cn(C)c3ncccc23)cc1 | 696 s
Cc1ccc(N2CCC(NC(=O)c3cccc(F)c3)C2=O)cc1C (centres undefined) | 891 s
Cc1ccc2c(Nc3ccc(C(C)C)cc3)c(C(=O)N3CCC(C)CC3)cnc2n1 | 737 s
CC(C)c1ccc(NC(=O)Cn2cnc3nc(N4CCCC(C(=O)NC5CC5)C4)sc3c2=O)cc1 (centres undefined) | 754 s
COc1cccc(CSc2ccc(-n3nc4c(c3C)CCC4)nn2)c1 | 1240 s
NC(=O)C1CCN(C(=O)c2cccc(NC(=O)c3nsc4ccccc34)c2)CC1 | 703 s
Cc1nc2cc(-c3noc(/C=C/c4ccco4)n3)ccc2o1 | 1010 s
CC(C)c1ccc(N2C(=O)CN(S(C)(=O)=O)CC2(C)C(=O)NCc2ccc(Cl)cc2)cc1 (centres undefined) | 966 s
Cc1cc(C(F)(F)F)nn1CC(=O)N1CCc2nn(CC3CC3)c(=O)n2CC1 | 712 s
CCn1nccc1C(=O)N1CCCC1c1ccc(Cl)cc1 (centres undefined) | 850 s
O=C(NCc1nnnn1C1CCCCC1)c1ccc(Br)o1 | 738 s
O=C(Nc1ccccc1Br)N1CCc2nc(-c3ccc(Cl)cc3)ncc2C1 | 1130 s
CCCNC(=O)c1cn(-c2ccc(S(=O)(=O)N3CCCC(C)C3)cn2)cn1 (centres undefined) | 884 s
O=c1c2c(CO)c(-c3ccccc3)nn2ccn1Cc1ccc(Br)cc1 | 1010 s
CC(C)c1csc(-c2csc(S(=O)(=O)NCc3ccc4c(c3)OCO4)c2)n1 | 1050 s
CCc1cc(C(=O)Nc2cc(OC)ccc2OC)nc2cc(-c3ccco3)nn12 | 1260 s
COc1ccc(OC)c(NC(=O)C(C)n2cnc3nc4c(cc3c2=O)CCCC4)c1 (centres undefined) | 755 s
Cc1oc(C2CCN(S(=O)(=O)c3cc(F)ccc3F)CC2)nc1C(=O)N1CCCC1 | 926 s
Clc1ccc(-c2ccnc3nc(-c4ccccc4)nn23)cc1 | 971 s
CCOc1ccc(-c2cc3c(=O)n(Cc4nc(-c5ccccc5OC)no4)ncn3n2)cc1 | 1050 s
Cn1nc(C2CC2)nc1C1CN(C(=O)Cc2ccc(S(C)(=O)=O)cc2)C1 | 611 s
Cc1sc(C)c(S(=O)(=O)N2CCCc3ccccc32)c1-c1cc(C(F)(F)F)on1 | 1290 s
O=C(c1cccc2c1CCN2C(=O)c1ccc(F)cc1)N1CCCCC1 | 854 s
COc1ccc(Cl)cc1NC(=O)c1cc(C(C)C)n2nccc2n1 | 1310 s
O=C(NCCc1ccc(Cl)cc1)c1csc(C(=O)N2CCCC2)n1 | 894 s
COc1ccc(N2CCN(c3nccc4ccc(C(=O)NC5CCCCCC5)cc34)CC2)cc1 | 835 s
Cc1ccc(NC(=O)N2CCC(OC3CCN(S(C)(=O)=O)CC3)CC2)cc1Cl | 867 s

Now from value to compound:

RP-LC retention time | Structure (SMILES)
654 s | CCC(C)NC(=O)c1c(C)sc2ccn(C)c(=O)c12 (centres undefined)
772 s | COc1ccc(OC)c(S(=O)(=O)N2CCOCCNC(=O)[C@H]3CCCC[C@H]32)c1
740 s | CCNC(=O)c1nnn(-c2cccc(Cl)c2)c1-c1cccnc1
764 s | Cc1cc(Cl)ccc1NC(=O)Cn1ccc2sccc2c1=O
592 s | CCN1CCC2(CC1)N=C(c1ccc(F)cc1)CC(c1cccc(OC)c1O)N2 (centres undefined)
755 s | COc1ccc(-c2cn3c(CC(=O)Nc4ccccc4C(F)(F)F)csc3n2)cc1OC
666 s | COc1ccc(C)cc1NC(=O)C1CCN(S(=O)(=O)c2cn(C)cn2)CC1
603 s | O=C(CCCc1nc2cccnc2n1Cc1ccccc1)N1CCN(c2ccccn2)CC1
943 s | O=C(NCc1ccccc1F)C1CCCN(c2nc3ccsc3c(=O)n2Cc2ccccc2)C1 (centres undefined)
705 s | CCCn1c(CCNC(=O)c2ccc(C)c(C)c2)nc2cccnc21
963 s | CCOc1ccc(C(=O)NCc2noc(-c3cccc(Cl)c3)n2)cc1
865 s | COc1ccc(CNC(=O)c2nnc(-c3ccc(S(=O)(=O)N(C)C)cc3)o2)c(OC)c1
781 s | Cc1ccc(NC(=O)Cc2nnc3ccc(-c4nc(C)no4)cn23)c(C)c1
666 s | CCOC(=O)C1CCCN(C(=O)C2CCN(c3cc(N4CCCCC4)ncn3)CC2)C1 (centres undefined)
1280 s | COc1ccc(-c2noc(-c3ccc(NC(=O)COc4ccc(Br)cc4)cc3)n2)cc1
754 s | CCc1nncn1C1CCN(S(=O)(=O)c2ccc(C)c(Cl)c2)CC1
686 s | Cc1ccc(S(=O)(=O)N2CCN(CCc3cn(C)c4ncccc34)CC2)cc1Cl
578 s | CCN(CCCNC(=O)Cn1ccc2c(=O)n(C)c(=O)n(C)c21)c1ccccc1

RP-LC retention time | Structure (SMILES)
579 s | CC(C)CCN1CCC(N2CCN(C(=O)CC(C)C)CC2)C1=O (centres undefined)
1080 s | CCc1sc(NC(=O)Cc2csc(C)n2)nc1-c1ccc(Br)cc1
546 s | COc1ccc(O)c(CNC2CCN(c3ccc(C(=O)NC4CC4)cn3)C2)c1 (centres undefined)
604 s | CCCNC(=O)N1CCCCCC1CN1CCC(OC)CC1 (centres undefined)
852 s | Cc1ccc(NC(=O)CN2C(=O)CCCc3cc(S(=O)(=O)N4CCCC4)ccc32)c(C)c1
629 s | Cc1ccc(Cl)cc1-n1ncc2c(NCCN3CCOCC3)ncnc21
737 s | Cc1ccc(-c2csc(NC(=O)CN3CCN(Cc4ccc5c(c4)OCO5)CC3)n2)cc1
686 s | O=C1NCCCn2cc(S(=O)(=O)Nc3ccc(F)c(Cl)c3)cc21
804 s | O=C(NCc1ccc(F)cc1)C1CCN(C(=O)C2Sc3ccccc3NC2=O)CC1 (centres undefined)
661 s | CC1=C(c2ccc(C)c(C)c2)S(=O)(=O)N=C1N1CCC(C(=O)NCCN2CCCC2)CC1
758 s | Cc1cccc(NC(=O)CSc2nc(N3CCCCC3)nc3ccccc23)c1
642 s | O=C(CSc1ncn[nH]1)Nc1ccc(Cl)cc1
846 s | Cc1cc(C)cc(NC(=O)Cn2nc3c(N(C)C4CCCCC4)nccn3c2=O)c1
969 s | COc1ccccc1C1(CNS(=O)(=O)c2cccc(Cl)c2C)CCOCC1
1070 s | CCOc1ccc(-c2nc(-c3ccc4nnn(C)c4c3)no2)cc1
652 s | COc1ccc(CNC(=O)c2ccc(N3CCCS3(=O)=O)cc2)cc1OC
726 s | CC(NC(=O)c1cc(-c2ccc(Cl)cc2)cn1C)c1cccnc1 (centres undefined)
